This note sets out measurements from article PMC8986850, “Development and exploration of novel substituted thiosemicarbazones as inhibitors of aldose reductase via in vitro analysis and computational study” (Scientific Reports, 2022).

A word on the melting point: it is the temperature, or range, at which the solid turns liquid. For orientation: IC50 means the concentration that inhibits the measured activity by half.

The target in data set [1] is T1, ALR2 (Bos taurus, UniProt P16116).
T1 construct: from tissue; host or cells: calf eye lenses
The data set can be described thus: ALR2 enzyme inhibition assay (enzyme extracted from calf lenses). Type of data set: biochemical, bovine. Particulars: for inhibition at 100 µM: bovine lens ALR2, 100 µM inhibitor, read-out: I (%, 100 µM) (ALR2) (converted); for IC50: bovine lens ALR2, substrate DL-glyceraldehyde, mean ± SEM of three measurements. The method, then:
Compounds 3a-o were tested against ALR2 to evaluate their inhibitory potential against aldose reductase whereas selectivity was determined via performing ALR1 inhibition assay. For the enzyme inhibition assay, ALR2 and ALR1 were extracted from bovine sources (ALR2 from eyes and ALR1 from kidneys). Moreover, inhibitions studies were also carried out on the expressed ALR2 (human AKR1B1) and inhibition data for ALR2- bovine source and expressed enzyme was compared and analyzed. The protocols for enzyme extraction and expression in the bacterial system are included in the section of “Supporting information”. […] For the purpose of comparison and validation of enzyme inhibition data, these compounds were tested against human AKR1B1 (hAKR1B1) expressed in E. coli BL21 (DE3).
(§1) For the determination of enzyme activity of ALR1 and ALR2, 100 µL of reaction mixture was composed of 20 µL of buffer (100 mM sodium phosphate, pH 6.2), 30 µL of enzyme extract, 20 µL of substrate (10 mM), 20 µL of cofactor (0.1 mM of NADPH) and 10 µL of test compound (1 mM)[6],[21]. The reaction mixture without cofactor was incubated at 32°C for 10 min, then the enzymatic reaction was initiated with the addition of NADPH and monitored for 5 minutes. Similar protocols were followed for ALR1 and ALR2, however the substrate was different for each enzyme, with sodium-D-glucoronate and DL-glyceraldehyde used as the substrates for the ALR1 and ALR2 assays, respectively. […] In addition, similar protocols were adopted for human AKR1B1 that was expressed in E. coli BL21 (DE3), though the determined protein concentration was 12 µg/mL for the expressed enzyme. Detailed protocols for the preparation of ALR1, ALR2 and expressed human AKR1B1 can be found in the supporting information.
(§2) The newly synthesized N-substitute thiosemicarbazones (3a-o) were dissolved in 100% DMSO and diluted with deionized water, keeping the DMSO concentration equal to 0.1% in the assay.
The extraction of ALR2 was carried out from calf lenses via adopting method described in
in (Hayman and Kinoshita 1965) with little modification. The lenses were obtained from slaughterhouse immediately after calf’s slaughtering and stored at -20^◦C until further use. These lense (150-170g) were subjected to homogenization with about three times volume of cold distilled water and then centrifugation was carried out for the homogenate at 10,000 x g for 14 minutes for removal of insoluble lipids particles. Precipitates were discarded and supernatant layer was subjected to 40% saturation of ammonium sulphate and again centrifugation was performed with same parameters for 14 minutes and again precipitates were discarded. […] In the last step, the supernatant was subjected to 75% of saturation with ammonium sulphate to obtain ALR2. Now, the precipitates were collected instead supernatant because precipitated protein was the expected desired ALR2. The precipitated enzyme (ALR2) was redissolved in 50mM solution of sodium chloride and dialyzed for 24 hours against 50mM solution (3.5L) of NaCl. The volume was recorded before and after dialysis, then dialyzed material was treated with liquid nitrogen. The extracted ALR2 was stored in 1mL Eppendorf tube in deep freezer at -80 ^◦C till further enzymatic studies.

In data set [2] the target is T2, human AKR1B1 (hAKR1B1) (Homo sapiens, UniProt P15121).
T2 construct: made in house; host or cells: E. coli BL21 (DE3)
The data set can be described thus: Inhibition of expressed human AKR1B1 (E. coli BL21 (DE3)). The conditions noted are these: for inhibition at 100 µM: human AKR1B1 expressed in E. coli, 100 µM inhibitor, read-out: I (%, 100 µM) (AKR1B1); for IC50: human AKR1B1 expressed in E. coli BL21 (DE3), mean ± SEM of three measurements. Type of data set: biochemical. As to the method:
For the enzyme inhibition assay, ALR2 and ALR1 were extracted from bovine sources (ALR2 from eyes and ALR1 from kidneys). Moreover, inhibitions studies were also carried out on the expressed ALR2 (human AKR1B1) and inhibition data for ALR2- bovine source and expressed enzyme was compared and analyzed. The protocols for enzyme extraction and expression in the bacterial system are included in the section of “Supporting information”. […] For the purpose of comparison and validation of enzyme inhibition data, these compounds were tested against human AKR1B1 (hAKR1B1) expressed in E. coli BL21 (DE3).
as §1, with “The reaction mixture without cofactor was incubated at 32°C for 10 min, then the enzymatic reaction was initiated with the addition of NADPH and monitored for 5 minutes.” left out
as §2
The expression plasmid for aldose reductase (pDONR223_AKR1B1_WT) was gift from Addgene in stable culture. Streaking of this culture has been carried out on LB Agar plate then incubated overnight, after growth of colonies , inoculation was performed in LB medium then incubated this medium in shaking incubator at 37 °C. After 48 hours turbidity was measured when OD=0.6 then some of bacterial growth was prepared as 50% glycerol stock. Others are subjected to plasmid isolation following method Miniprep. Meanwhile E. Coli BL21 De3 cells were made competent then transformation with extracted plasmid (AKR1B1) had been carried out heat shock method. Transformed cell ( E.Coli BL21 DE3+AKR1B1) were grown in 37 °C in shaking incubator for 48 hr. The selection for transformed cells was carried out with the help of antibiotic (spectinomycin 50µg/ml). […] For the expression of aldose reductase , E.coli BL21DE3 were induced with of IPTG(Isopropyl-d-thiogalactopyranoside)[3]. […] The expressed enzyme was stabilized by addition 10 mM Tris–HCl buffer, 0.5 mM EDTA, 5 mM β-marcaptoethanol at pH 8.0 and 20% (v/v) glycerol. Cells were lysed with lysis buffer and then precipitation with ammonium sulfate up to 80% saturation was done . the expressed enzyme was dialyzed overnight against tris buffer. Protein quantification was performed following Bradford protein assay. Aliqoutes were stored at -80 refrigerator.

Data set [3] has as its target T3, ALR1 (Bos taurus, UniProt Q3ZCJ2).
T3 construct: The calf’s kidneys were obtained after slaughtering and dissection; from tissue; host or cells: calf kidneys
Kind of data set: ALR1 enzyme inhibition assay (enzyme extracted from calf kidneys). Type of data set: biochemical, bovine. The method, then:
Compounds 3a-o were tested against ALR2 to evaluate their inhibitory potential against aldose reductase whereas selectivity was determined via performing ALR1 inhibition assay. For the enzyme inhibition assay, ALR2 and ALR1 were extracted from bovine sources (ALR2 from eyes and ALR1 from kidneys). Moreover, inhibitions studies were also carried out on the expressed ALR2 (human AKR1B1) and inhibition data for ALR2- bovine source and expressed enzyme was compared and analyzed. The protocols for enzyme extraction and expression in the bacterial system are included in the section of “Supporting information”. […] For the purpose of comparison and validation of enzyme inhibition data, these compounds were tested against human AKR1B1 (hAKR1B1) expressed in E. coli BL21 (DE3). We found a similar pattern of enzyme inhibition for the synthesized compounds against extracted enzyme (ALR2) as well as expressed enzyme (hAKR1B1).
as §1, §2
The calf’s kidneys were obtained after slaughtering and dissection, dissolved in 3 volumes of sodium phosphate buffer (10mM) which is composed of 2.0 mM EDTA, 2.5mM β-mercaptoethanol, 0.25M solution of sucrose at pH 7.25. First, the homogenisation was carried out then centrifugation of the homogenate was performed at 12000 x g at 0-2^◦C for 30 minutes. The precipitates containing insoluble lipids were discarded and the collected supernatant layer was treated with 40% saturation of ammonium sulphate. This liquid mixture was subjected to centrifugation at 11000 x g at 0-2^◦C for 30 minutes. Now, precipitates were again discarded and supernatant was collected and treated with 50% ammonium sulphate and procedure was repeated in the same manner as in previous step. In the last step, the saturation of ammonium sulphate was increased up to 75% and supernatant was subjected to same parameter of centrifugation. At this final step, precipitates were obtained and supernatant layer was discarded. The obtained material of precipitates was composed of ALR1and redissolved in initial buffer that was used during homogenisation. Finally, material was dialyzed overnight with same buffer system. The dialyzed fractions containing ALR1 were stored at -80^◦C for further use[5].

Data set [4] is described as follows: DPPH radical scavenging activity. Particulars: 100 µM compound, methanolic DPPH 0.025 mg/mL, 517 nm. The method, then: DPPH (2,2-diphenyl-1-picrylhydrazyl) was used to explore the free radical quenching ability of 3a-o so as to provide a gauge of their antioxidant potential. The experiment was conducted according to a previously reported protocol with slight modifications. Percent free radical scavenging activities (% FRSA) of 3a-o were determined by spectrophotometric analysis at 517 nm using a homogenous mixture of methanolic DPPH (0.025 mg/mL) and a 100 µM solution of the tested compound, with ascorbic acid used as a positive control (Fig. 3).
For orientation: Loss of DPPH colour is used to gauge radical scavenging.

T3 sequence (Q3ZCJ2 whole entry): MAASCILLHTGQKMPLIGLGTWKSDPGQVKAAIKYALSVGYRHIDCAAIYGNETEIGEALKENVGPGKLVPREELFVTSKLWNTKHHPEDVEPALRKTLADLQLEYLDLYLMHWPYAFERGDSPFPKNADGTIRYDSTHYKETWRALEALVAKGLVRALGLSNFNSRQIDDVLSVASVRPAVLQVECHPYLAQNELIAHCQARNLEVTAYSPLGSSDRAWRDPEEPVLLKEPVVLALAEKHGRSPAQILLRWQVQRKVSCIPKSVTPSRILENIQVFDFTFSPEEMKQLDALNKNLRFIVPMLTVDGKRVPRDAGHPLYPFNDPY

Turning to `Cc1ccc(NC(=S)NN=Cc2cc(C(C)(C)C)cc(C(C)(C)C)c2O)c(C)c1` [Compound 3b, 2-(3,5-di-tert-butyl-2-hydroxybenzylidene)-N-(2,4-dimethylphenyl)hydrazine carbothioamide], the melting point was 186 to 188 °C. Moreover, the inhibition at 100 µM in data set [1] is at most 44.6%. For the same compound, the inhibition at 100 µM in data set [2] was determined as 27.4%. The inhibition at 100 µM in data set [3] (bovine kidney ALR1, 100 µM inhibitor, read-out: I (%, 100 µM) (ALR1)) is at most 31.6%. In addition, in data set [4], the “% FRSA (percent free radical scavenging activity)” value came out at 84.05%.

`CC(C)(C)c1cc(C=NNC(=S)Nc2ccc(Br)cc2)c(O)c(C(C)(C)C)c1` [Compound 3i, N-(4-bromophenyl)-2-(3,5-di-tert-butyl-2-hydroxybenzylidene)hydrazine carbothioamide]: the melting point lay within 184 to 186 °C. Moreover, in data set [1], the inhibition at 100 µM was at most 39.1%. The inhibition at 100 µM in data set [2] was 22.3%. Also, the “% FRSA (percent free radical scavenging activity)” value in data set [4] was 81.80%.

For the compound `CCCC(CCC)C(=O)O` [Valproic acid, reference compound], in data set [3] (bovine kidney ALR1, substrate sodium-D-glucoronate, mean ± SEM of three measurements), it took 49310 ± 5 nM to reach half-maximal inhibition (IC50).

Compound `CC(C)(C)c1cc(C=NNC(=S)Nc2ccc(F)cc2)c(O)c(C(C)(C)C)c1` [Compound 3g, 2-(3,5-di-tert-butyl-2-hydroxybenzylidene)-N-(4-fluorophenyl)hydrazine carbothioamide] returned a melting point of 176 to 178 °C. In data set [1], this compound showed an IC50 of 2380 ± 2.8 nM. The compound further had an IC50 in data set [2] of 3950 ± 3.8 nM. In data set [4], the “% FRSA (percent free radical scavenging activity)” value came out at 85.89%.

In the case of `CC(C)(C)c1cc(C=NNC(=S)Nc2ccc(Cl)cc2)c(O)c(C(C)(C)C)c1` [Compound 3l, N-(4-chlorophenyl)-2-(3,5-di-tert-butyl-2-hydroxybenzylidene)hydrazine carbothioamide], the melting point was in the range of 188 to 190 °C. Also, in data set [1], the inhibition at 100 µM is 81.5% and the IC50 was 1460 ± 5 nM. This compound had an IC50 in data set [2] of 1650 ± 4 nM. Also, in data set [4], the “% FRSA (percent free radical scavenging activity)” value is recorded as 61.55%.

On to `CC(C)(C)c1cc(C=NNC(=S)NCc2ccccc2)c(O)c(C(C)(C)C)c1` [Compound 3e, N-benzyl-2-(3,5-di-tert-butyl-2-hydroxybenzylidene)hydrazinecarbothioamide], for which the melting point was 190 to 192 °C. In addition, the inhibition at 100 µM in data set [2] came out at 12.3%. Moreover, in data set [4], the “% FRSA (percent free radical scavenging activity)” value was found to be 83.20%.

`CC(C)c1ccc(NC(=S)NN=Cc2cc(C(C)(C)C)cc(C(C)(C)C)c2O)cc1` [Compound 3n, 2-(3,5-di-tert-butyl-2-hydroxybenzylidene)-N-(4-isopropylphenyl)hydrazine carbothioamide]: the melting point lay in the range of 189 to 191 °C. In addition, in data set [1], the inhibition at 100 µM was at most 39.1%. Also, the inhibition at 100 µM in data set [2] was 22.6%. Besides, in data set [4], the “% FRSA (percent free radical scavenging activity)” value came out at 7.91%.

`CC(C)(C)c1cc(C=NNC(=S)NC2CCCCC2)c(O)c(C(C)(C)C)c1` [Compound 3h, N-cyclohexyl-2-(3,5-di-tert-butyl-2-hydroxybenzylidene)hydrazinecarbothioamide] gave a melting point of 168 to 170 °C. Also, the inhibition at 100 µM in data set [1] is at most 39.1%. In addition, the inhibition at 100 µM in data set [2] was determined as 38%. Moreover, the “% FRSA (percent free radical scavenging activity)” value in data set [4] is 83.54%.

As to `O=C1O[C@H]([C@@H](O)CO)C(O)=C1O` [Ascorbic acid, reference compound], the “% FRSA (percent free radical scavenging activity)” value in data set [4] is given as 89.88%.

In turn, `Cc1ccccc1NC(=S)NN=Cc1cc(C(C)(C)C)cc(C(C)(C)C)c1O` [Compound 3d, 2-(3,5-di-tert-butyl-2-hydroxybenzylidene)-N-(o-tolyl)hydrazinecarbothioamide] had a melting point of 182 to 184 °C. In data set [2], the inhibition at 100 µM amounted to 3.56%. Also, the “% FRSA (percent free radical scavenging activity)” value in data set [4] turned out to be 84.58%.
